What all share (details): pH 8
The target in experiment [1] is T1, PHD finger protein 1 (Homo sapiens, UniProt O43189).
T1 sequence (O43189 whole entry): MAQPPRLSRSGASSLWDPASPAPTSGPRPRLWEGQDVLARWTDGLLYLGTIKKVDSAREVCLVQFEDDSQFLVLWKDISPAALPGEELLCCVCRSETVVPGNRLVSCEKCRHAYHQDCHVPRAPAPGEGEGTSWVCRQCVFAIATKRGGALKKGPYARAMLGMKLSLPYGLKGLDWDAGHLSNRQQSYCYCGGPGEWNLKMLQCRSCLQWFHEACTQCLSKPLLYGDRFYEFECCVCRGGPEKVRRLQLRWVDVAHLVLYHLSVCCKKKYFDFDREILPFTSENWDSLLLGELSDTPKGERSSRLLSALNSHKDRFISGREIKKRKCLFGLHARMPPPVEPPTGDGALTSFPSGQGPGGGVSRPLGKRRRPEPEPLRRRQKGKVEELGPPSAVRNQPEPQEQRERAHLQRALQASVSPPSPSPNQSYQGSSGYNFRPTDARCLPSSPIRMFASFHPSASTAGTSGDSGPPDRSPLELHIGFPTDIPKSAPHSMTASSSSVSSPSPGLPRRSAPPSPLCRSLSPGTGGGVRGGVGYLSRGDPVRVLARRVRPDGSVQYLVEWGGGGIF
Put plainly: AlphaScreen Assay. As for the experimental part: (§1) In brief, compound plates (1 μL at 10 mM highest concentration; 3-fold, 10-point dilutions in DMSO) were diluted in 1X assay buffer (20 mM TRIS pH 8.0, 25 mM NaCl, 2 mM DTT and 0.05% Tween-20) to 1 mM using a Multimek robotic pipettor (Nanoscreen), and 1 μL was spotted into the wells of 384-well low-volume Proxiplates (PerkinElmer). To these plates was added 9 μL of protein−peptide mix in a 1X assay buffer by Multidrop (Thermo) to bring the final compound concentration to 100 μM, and this was incubated for 30 min at RT. Next, 2 μL of a 1:1 mixture of streptavidin-conjugate donor and nickel-chelate acceptor beads (45μg/mL in 1X assay buffer) were added, and the plates were allowed to incubate for an additional 30 min in the dark at RT. After incubation, the plates were read on an EnVision multilabel reader equipped with an HTS AlphaScreen laser (PerkinElmer).
On the technique in general: Bead proximity is the source of the signal in Alpha formats.

Experiment [2] addresses T2, Chromobox protein homolog 7 (Homo sapiens, UniProt O95931).
T2 sequence (O95931 whole entry): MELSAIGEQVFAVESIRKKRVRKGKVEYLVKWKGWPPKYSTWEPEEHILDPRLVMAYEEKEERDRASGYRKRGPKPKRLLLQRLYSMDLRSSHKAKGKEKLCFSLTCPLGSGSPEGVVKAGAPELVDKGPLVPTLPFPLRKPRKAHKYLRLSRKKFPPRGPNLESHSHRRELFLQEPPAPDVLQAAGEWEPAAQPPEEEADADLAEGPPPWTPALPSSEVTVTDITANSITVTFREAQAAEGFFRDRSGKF
The experiment can be described thus: AlphaScreen Assay. As for the experimental part:
as §1

Experiment [3] addresses Lysine-specific demethylase 5A (Homo sapiens, UniProt P29375). Put plainly: AlphaScreen Assay. As for the experimental part: as §1
The target in experiment [4] is T3, E3 ubiquitin-protein ligase UHRF1 (Homo sapiens, UniProt Q96T88).
T3 sequence (Q96T88 whole entry): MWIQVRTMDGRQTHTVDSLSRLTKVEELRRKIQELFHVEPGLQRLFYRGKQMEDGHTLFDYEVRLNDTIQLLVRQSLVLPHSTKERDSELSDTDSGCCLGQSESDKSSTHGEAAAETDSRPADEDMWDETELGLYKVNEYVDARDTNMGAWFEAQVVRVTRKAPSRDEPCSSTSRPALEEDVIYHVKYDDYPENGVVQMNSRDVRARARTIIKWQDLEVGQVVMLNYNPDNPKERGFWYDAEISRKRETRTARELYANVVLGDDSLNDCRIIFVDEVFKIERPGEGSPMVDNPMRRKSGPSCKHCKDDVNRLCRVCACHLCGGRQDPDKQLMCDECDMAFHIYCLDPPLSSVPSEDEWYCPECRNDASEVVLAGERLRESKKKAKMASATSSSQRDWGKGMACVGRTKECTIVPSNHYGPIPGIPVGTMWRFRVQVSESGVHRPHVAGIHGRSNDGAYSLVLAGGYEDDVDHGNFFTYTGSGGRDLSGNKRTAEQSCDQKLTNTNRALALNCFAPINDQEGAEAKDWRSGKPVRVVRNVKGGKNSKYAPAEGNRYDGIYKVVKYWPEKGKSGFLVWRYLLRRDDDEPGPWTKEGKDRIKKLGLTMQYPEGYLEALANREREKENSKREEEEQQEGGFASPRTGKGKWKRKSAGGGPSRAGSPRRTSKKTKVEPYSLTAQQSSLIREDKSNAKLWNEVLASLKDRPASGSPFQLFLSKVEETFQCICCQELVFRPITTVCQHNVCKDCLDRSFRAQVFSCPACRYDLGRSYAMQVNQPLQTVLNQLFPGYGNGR
Put plainly: AlphaScreen Assay. As for the experimental part:
as §1

Experiment [5] has as its target PHD finger protein 19 (Homo sapiens, UniProt Q5T6S3). The experiment can be described thus: AlphaScreen Assay. The method, then:
as §1

The target of experiment [6] is T4, Isoform 4 of Lethal(3)malignant brain tumor-like protein 1 (4) (Homo sapiens, UniProt Q9Y468).
T4 sequence (Q9Y468 whole entry): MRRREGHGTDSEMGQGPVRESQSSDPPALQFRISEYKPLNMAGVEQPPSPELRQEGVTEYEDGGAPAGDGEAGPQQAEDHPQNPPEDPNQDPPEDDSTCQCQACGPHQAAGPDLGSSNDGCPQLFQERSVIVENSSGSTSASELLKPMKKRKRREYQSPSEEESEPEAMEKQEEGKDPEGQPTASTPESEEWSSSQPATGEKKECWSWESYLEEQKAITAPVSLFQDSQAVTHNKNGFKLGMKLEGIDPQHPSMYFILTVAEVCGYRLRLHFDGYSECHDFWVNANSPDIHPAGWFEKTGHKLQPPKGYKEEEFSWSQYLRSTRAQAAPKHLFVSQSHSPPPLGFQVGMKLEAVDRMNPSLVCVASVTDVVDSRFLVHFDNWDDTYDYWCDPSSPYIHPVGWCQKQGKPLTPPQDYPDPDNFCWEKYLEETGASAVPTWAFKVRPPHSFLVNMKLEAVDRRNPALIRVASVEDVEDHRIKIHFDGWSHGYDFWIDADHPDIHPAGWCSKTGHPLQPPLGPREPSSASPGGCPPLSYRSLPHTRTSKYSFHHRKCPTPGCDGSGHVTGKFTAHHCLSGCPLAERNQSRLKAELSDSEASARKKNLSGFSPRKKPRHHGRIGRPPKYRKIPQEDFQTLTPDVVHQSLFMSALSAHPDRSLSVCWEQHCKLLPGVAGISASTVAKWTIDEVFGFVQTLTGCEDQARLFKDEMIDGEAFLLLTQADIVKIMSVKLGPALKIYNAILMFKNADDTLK
The experiment can be described thus: AlphaScreen Assay. The method, then: as §1

In experiment [7] the target is T5, TP53-binding protein 1 (Homo sapiens, UniProt Q12888). The experiment can be described thus: AlphaScreen Assay. The method, then:
as §1

Experiment [8] deals with PHD finger protein 23 (Homo sapiens, UniProt Q9BUL5). The experiment can be described thus: AlphaScreen Assay. As for the experimental part:
as §1

Experiment [9] deals with MBT domain-containing protein 1 (Homo sapiens, UniProt Q05BQ5). Put plainly: AlphaScreen Assay. The method, then: as §1
For experiment [10], the target named is T5, TP53-binding protein 1. Put plainly: ITC. As for the experimental part: All ITC measurements were recorded at 25 °C with an AutoITC200 microcalorimeter (MicroCal Inc.). All protein and compound stock samples were in the target buffer (25 mM Tris-HCl, pH 8, 150 mM NaCl, and 2 mM β-mercaptoethanol), and then diluted in the same buffer to achieve the desired concentrations: 90 200 μM protein and 1 2 mM compound depending on the expected dissociation constant. The concentration of protein stock solutions were established using the Edelhoch method, whereas 10 mM compound stock solutions were prepared gravimetrically based on molecular weight. A typical experiment included a single 0.2 μL compound injection into a 200 μL cell filled with protein, followed by 25 subsequent 1.5 μL injections of compound. Injections were performed with a spacing of 180 seconds and a reference power of 8 μcal/sec.

Chain of PHD finger protein 23 (Q9BUL5 whole entry): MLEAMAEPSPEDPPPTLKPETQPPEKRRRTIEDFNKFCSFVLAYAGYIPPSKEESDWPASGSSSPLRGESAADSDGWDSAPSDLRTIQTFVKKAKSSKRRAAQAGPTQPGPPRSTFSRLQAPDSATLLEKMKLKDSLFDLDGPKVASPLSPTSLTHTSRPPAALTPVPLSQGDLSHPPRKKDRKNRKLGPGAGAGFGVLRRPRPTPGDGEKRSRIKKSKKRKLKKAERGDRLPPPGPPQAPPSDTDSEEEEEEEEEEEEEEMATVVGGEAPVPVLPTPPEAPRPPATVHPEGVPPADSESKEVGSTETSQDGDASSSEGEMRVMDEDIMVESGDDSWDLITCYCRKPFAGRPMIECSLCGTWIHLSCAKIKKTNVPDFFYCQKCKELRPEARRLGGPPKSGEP
Chain of Lysine-specific demethylase 5A (P29375 whole entry): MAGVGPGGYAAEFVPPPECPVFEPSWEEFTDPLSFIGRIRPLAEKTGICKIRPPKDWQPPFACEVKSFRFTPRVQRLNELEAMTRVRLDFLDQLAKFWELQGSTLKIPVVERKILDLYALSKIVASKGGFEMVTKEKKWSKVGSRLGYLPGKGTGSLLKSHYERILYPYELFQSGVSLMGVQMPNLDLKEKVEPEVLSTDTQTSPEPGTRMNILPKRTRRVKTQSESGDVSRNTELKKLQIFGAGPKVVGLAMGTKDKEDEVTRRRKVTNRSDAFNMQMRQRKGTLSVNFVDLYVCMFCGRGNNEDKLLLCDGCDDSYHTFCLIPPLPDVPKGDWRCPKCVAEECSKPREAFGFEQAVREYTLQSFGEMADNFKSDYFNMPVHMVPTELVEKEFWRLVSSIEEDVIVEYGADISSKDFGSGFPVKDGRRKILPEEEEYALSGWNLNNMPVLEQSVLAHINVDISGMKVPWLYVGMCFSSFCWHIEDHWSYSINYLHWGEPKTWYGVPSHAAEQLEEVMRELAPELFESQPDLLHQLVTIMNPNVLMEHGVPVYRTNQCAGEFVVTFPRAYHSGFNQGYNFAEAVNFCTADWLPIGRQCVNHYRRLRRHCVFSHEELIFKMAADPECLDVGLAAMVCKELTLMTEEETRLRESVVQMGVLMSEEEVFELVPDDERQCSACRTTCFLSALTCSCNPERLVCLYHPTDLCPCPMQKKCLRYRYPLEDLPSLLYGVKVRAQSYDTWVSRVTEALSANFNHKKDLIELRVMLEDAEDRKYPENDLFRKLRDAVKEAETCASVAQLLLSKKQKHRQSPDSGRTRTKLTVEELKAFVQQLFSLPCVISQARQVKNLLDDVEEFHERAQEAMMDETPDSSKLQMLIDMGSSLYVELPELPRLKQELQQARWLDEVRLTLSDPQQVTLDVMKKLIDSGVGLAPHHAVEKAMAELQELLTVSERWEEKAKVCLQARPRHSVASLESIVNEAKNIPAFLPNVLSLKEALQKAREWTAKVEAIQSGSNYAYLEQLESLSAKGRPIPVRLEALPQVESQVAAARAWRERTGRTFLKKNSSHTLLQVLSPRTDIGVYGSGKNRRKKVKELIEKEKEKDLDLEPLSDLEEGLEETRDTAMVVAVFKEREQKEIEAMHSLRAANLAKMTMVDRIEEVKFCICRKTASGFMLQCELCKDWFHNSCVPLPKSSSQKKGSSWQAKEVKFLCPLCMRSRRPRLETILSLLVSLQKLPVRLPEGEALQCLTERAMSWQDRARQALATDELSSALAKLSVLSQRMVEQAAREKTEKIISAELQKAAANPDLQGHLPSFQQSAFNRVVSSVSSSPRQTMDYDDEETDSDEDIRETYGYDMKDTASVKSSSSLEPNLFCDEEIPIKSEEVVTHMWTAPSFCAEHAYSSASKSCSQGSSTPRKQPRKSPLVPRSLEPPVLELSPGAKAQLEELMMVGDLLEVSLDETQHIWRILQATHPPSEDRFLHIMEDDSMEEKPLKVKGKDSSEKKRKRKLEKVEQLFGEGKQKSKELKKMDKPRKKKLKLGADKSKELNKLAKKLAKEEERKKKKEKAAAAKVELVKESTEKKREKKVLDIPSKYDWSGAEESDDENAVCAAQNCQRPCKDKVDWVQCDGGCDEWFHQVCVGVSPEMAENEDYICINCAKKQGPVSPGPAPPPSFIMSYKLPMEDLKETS
Chain of MBT domain-containing protein 1 (Q05BQ5 whole entry, the tested form may be a part): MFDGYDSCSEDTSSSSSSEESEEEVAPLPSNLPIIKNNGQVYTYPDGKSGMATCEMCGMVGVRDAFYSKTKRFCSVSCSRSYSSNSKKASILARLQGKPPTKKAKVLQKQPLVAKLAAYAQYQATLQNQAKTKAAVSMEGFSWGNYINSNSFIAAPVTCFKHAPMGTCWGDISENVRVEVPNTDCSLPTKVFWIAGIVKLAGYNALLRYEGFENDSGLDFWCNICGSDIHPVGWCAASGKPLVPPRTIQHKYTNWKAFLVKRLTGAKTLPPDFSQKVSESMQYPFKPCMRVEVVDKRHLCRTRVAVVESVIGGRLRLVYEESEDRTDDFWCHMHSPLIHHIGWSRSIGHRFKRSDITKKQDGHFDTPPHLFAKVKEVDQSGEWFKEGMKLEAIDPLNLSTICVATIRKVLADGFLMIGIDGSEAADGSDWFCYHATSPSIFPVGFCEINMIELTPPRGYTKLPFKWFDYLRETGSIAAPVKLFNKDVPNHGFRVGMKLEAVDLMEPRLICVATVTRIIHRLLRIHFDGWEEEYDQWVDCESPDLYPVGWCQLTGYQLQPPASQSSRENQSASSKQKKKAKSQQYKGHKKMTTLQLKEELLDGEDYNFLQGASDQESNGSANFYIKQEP
T5 sequence (Q12888 whole entry): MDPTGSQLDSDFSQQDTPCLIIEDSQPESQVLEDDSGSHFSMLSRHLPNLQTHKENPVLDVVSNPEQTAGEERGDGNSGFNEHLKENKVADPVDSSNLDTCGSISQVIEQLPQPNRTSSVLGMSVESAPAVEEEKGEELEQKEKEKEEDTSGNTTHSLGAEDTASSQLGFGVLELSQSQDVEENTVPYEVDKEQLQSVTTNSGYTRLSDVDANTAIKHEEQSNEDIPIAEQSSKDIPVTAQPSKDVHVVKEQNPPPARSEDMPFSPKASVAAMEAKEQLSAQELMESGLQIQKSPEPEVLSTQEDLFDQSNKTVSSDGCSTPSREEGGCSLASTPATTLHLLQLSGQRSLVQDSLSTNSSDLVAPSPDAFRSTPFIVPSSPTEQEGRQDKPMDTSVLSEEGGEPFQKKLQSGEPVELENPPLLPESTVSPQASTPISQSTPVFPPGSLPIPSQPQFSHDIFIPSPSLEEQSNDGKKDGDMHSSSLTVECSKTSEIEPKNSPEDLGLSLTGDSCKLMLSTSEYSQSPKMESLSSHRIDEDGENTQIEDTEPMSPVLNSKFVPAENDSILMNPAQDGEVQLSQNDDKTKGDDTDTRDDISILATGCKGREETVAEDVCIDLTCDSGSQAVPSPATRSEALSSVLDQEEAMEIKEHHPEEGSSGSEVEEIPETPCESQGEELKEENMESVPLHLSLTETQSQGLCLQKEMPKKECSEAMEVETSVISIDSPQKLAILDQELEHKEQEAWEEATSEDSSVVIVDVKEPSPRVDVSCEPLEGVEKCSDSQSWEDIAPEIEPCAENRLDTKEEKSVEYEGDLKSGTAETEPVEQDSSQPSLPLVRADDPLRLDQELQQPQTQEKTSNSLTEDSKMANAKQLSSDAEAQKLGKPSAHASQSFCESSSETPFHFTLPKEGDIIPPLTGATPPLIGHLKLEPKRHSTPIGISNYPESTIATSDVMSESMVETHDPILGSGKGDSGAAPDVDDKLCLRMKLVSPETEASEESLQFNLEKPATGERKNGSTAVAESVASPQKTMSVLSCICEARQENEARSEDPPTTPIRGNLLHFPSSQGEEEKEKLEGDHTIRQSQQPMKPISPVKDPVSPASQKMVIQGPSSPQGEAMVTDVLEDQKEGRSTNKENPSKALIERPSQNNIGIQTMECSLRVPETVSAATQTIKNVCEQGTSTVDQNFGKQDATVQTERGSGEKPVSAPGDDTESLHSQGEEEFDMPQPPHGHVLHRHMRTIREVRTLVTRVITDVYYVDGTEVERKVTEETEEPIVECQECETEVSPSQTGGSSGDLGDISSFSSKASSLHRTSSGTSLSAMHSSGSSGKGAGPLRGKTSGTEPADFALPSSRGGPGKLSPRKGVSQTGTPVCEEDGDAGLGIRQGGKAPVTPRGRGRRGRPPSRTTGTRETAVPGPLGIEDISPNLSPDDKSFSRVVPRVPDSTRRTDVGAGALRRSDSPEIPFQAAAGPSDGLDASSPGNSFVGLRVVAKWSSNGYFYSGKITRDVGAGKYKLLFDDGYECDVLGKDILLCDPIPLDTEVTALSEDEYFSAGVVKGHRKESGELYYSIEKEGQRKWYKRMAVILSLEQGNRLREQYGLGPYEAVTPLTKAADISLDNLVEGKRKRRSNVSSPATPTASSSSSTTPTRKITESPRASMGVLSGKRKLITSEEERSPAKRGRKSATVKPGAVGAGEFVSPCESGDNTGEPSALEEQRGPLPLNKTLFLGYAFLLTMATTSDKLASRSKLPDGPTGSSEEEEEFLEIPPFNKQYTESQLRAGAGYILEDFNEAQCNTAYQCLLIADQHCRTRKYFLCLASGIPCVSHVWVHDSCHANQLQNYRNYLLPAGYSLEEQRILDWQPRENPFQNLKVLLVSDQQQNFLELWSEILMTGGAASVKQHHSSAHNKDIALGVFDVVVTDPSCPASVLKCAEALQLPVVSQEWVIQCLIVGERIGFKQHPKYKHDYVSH

Turning to `CC(C)(C)OCCCNC(=O)c1cccc(Br)c1` [3-Bromo-N-(3-(tert-butoxy)propyl)benzamide (5)], the IC50 in experiment [1], in experiment [2], in [3], in experiment [4], in [5] and in experiment [6] was over 100 µM in each case. Also, the half-inhibitory concentration (IC50) in [7], in [8] and in experiment [9] was over 100 µM throughout.
As to `CC(C)(C)NCCCNC(=O)c1cccc(Br)c1` [3-Bromo-N-(3-(tert-butylamino)propyl)benzamide (UNC2170, 1)], the Kd (commonly the concentration at which binding is half-saturated) in [10] is 22 µM. Besides, the IC50 in experiment [1], in experiment [2], in experiment [3], in experiment [4], in experiment [5] and in [6] was over 500 µM each time. Besides, the IC50 – broadly, the midpoint of a concentration-inhibition curve – in experiment [7] was 29 µM; in experiment [8], over 500 µM; in experiment [9], over 500 µM.
`CN(CCCNC(=O)c1cccc(Br)c1)C(C)(C)C` [3-Bromo-N-(3-(tert-butyl(methyl)amino)propyl)benzamide (UNC2892, 4)]: the IC50 in [1], in experiment [2], in experiment [3], in experiment [4], in experiment [5] and in experiment [6] was over 500 µM in each case. Also, the IC50 in [7], in [8] and in experiment [9] was over 500 µM in each case.

Source of the values: BindingDB's records for doi:10.1021/cb500956g (University of North Carolina At Chapel Hill, 2015).
